# Data: patent US5407911A, “Parathyroid hormone-containing emulsion for nasal administration” (Asahi Kasei Kogyo Kabushiki Kaisha, priority 1991, dated 1995)
# What was measured:
# Assay type in all cases: physicochemical
# [1] = Stabilities of the emulsions according to the added concentrations of the azacycloalkane derivative (Referential Experiment 2); conditions: for Observation after 3 days standing / Observation after 7 days standing: room temperature
# Method: Each 5 ml of a 1% (W/V) solution preliminarily prepared by dissolving dipotassium glycyrrhizate in distilled water was poured in each of eight 10 ml size test tubes, and thereto was added 1-[2-(decylthio)ethyl] azacyclopentane-2-one selected from the azacycloalkane derivatives so as to make a concentration ranging from 0 to 10%. Then the mixture was agitated for 1 minute using Biomixer (NIHON SEIKI SEISAKUSHO) at 15,000 rpm to prepare each emulsion. The state of dispersion just after the preparation, or after 3 days or 7 days standing at room temperature was observed.
# [2] = State of dispersion of emulsions of 1-[2-(decylthio)ethyl]azacyclopentan-2-one made with three emulsifying agents (Referential Experiment 1)
# Method: Using 1-[2-(decylthio)ethyl]azacyclopentan-2-one selected from the azacycloalkane derivatives, and three emulsifying agents hereinbelow, emulsifiabilities and stabilities of the emulsions were examined.
# (§1) […] The mixutre was agitated under 15,000 rpm for 1 minute by Biomixer (NIHON SEIKI SEISAKUSHO) to prepare each emulsion. The state of dispersion just after the preparation and after 3 days standing at room temperature was observed. The turbidity just after the preparation was measured by absorbance at 650 nm, and used as the index of emulsifiability.
# [3] = Turbidity just after preparation (absorbance at 650 nm) as index of emulsifiability (Referential Experiment 1); conditions: for Turbidity (650 nm): just after preparation
# Method: as §1
# [4] = azacycloalkane 10.0 % in 1% dipotassium glycyrrhizate
smiles,measurement,setting,value
CCCCCCCCCCSCCN1CCCC1=O [1-[2-(decylthio)ethyl]azacyclopentane-2-one],Observation just after preparation,[1]; azacycloalkane 0.01 % in 1% dipotassium glycyrrhizate,Colorless clear
same,Emulsification and emulsion stability,[1]; azacycloalkane 0.01% to 10% at 1% dipotassium glycyrrhizate,good emulsification and gave stable emulsion
same,Observation after 3 days standing,[1]; azacycloalkane 0.01 %,Colorless clear
same,Observation after 7 days standing,[1]; azacycloalkane 0.01 %,Colorless clear
same,Observation just after preparation,[1]; azacycloalkane 0.1 % in 1% dipotassium glycyrrhizate,Colorless clear
same,Observation after 3 days standing,[1]; azacycloalkane 0.1 %,Colorless clear
same,Observation after 7 days standing,[1]; azacycloalkane 0.1 %,Colorless clear
same,Observation just after preparation,[1]; azacycloalkane 0.5 % in 1% dipotassium glycyrrhizate,Colorless clear
same,Observation after 3 days standing,[1]; azacycloalkane 0.5 %,Colorless clear
same,Observation after 7 days standing,[1]; azacycloalkane 0.5 %,Colorless clear
same,Observation just after preparation,[1]; azacycloalkane 1.0 % in 1% dipotassium glycyrrhizate,White clear
same,Observation after 3 days standing,[1]; azacycloalkane 1.0 %,White clear
same,Observation after 7 days standing,[1]; azacycloalkane 1.0 %,White clear
same,Observation just after preparation,[1]; azacycloalkane 2.0 % in 1% dipotassium glycyrrhizate,White clear
same,Observation after 3 days standing,[1]; azacycloalkane 2.0 %,White clear
same,Observation after 7 days standing,[1]; azacycloalkane 2.0 %,White clear
same,Observation just after preparation,[1]; azacycloalkane 5.0 % in 1% dipotassium glycyrrhizate,White emulsified
same,Observation after 3 days standing,[1]; azacycloalkane 5.0 %,White emulsified
same,Observation after 7 days standing,[1]; azacycloalkane 5.0 %,White emulsified
same,Observation just after preparation,[1]; [4],White emulsified
same,Observation after 3 days standing,[1]; [4],White emulsified
same,Observation after 7 days standing,[1]; [4],White emulsified
CC1(C)[C@@H](O[C@H]2O[C@H](C(=O)[O-])[C@@H](O)[C@H](O)[C@H]2O[C@@H]2O[C@H](C(=O)[O-])[C@@H](O)[C@H](O)[C@H]2O)CC[C@]2(C)[C@H]3C(=O)C=C4[C@@H]5C[C@@](C)(C(=O)O)CC[C@]5(C)CC[C@@]4(C)[C@]3(C)CC[C@@H]12.[K+].[K+] [dipotassium glycyrrhizate],Just after preparation (state of dispersion),[2]; emulsifying agent 0.5 %,White clear
same,Just after preparation (state of dispersion),[2]; emulsifying agent 1.0 %,White clear
same,Just after preparation (state of dispersion),[2]; emulsifying agent 2.0 %,White clear
same,Just after preparation (state of dispersion),[2]; emulsifying agent 3.0 %,White clear
same,Emulsification,[2]; emulsifying agent at 0.1-5 %,good emulsification
same,Dissolution,[2]; emulsifying agent at 4-5 %,full dissolution
same,Turbidity (650 nm),[3]; emulsifying agent 0.1 %,1.284
same,Turbidity (650 nm),[3]; emulsifying agent 0.5 %,0.459
same,Turbidity (650 nm),[3]; emulsifying agent 1.0 %,0.437
same,Turbidity (650 nm),[3]; emulsifying agent 2.0 %,0.405
same,Turbidity (650 nm),[3]; emulsifying agent 3.0 %,0.346
same,Turbidity (650 nm),[3]; emulsifying agent 4.0 %,0.006
same,Turbidity (650 nm),[3]; emulsifying agent 5.0 %,0.006
same,"Turbidity as index of emulsifiability, compared with HCO-60 and polysorbate 80",[3]; same concentration level,stronger emulsifiability
